In brackets after ≈: the same amount, converted by molar mass. Like-named read-outs stand apart in the source and are kept apart here. Peptide text beside a SMILES is read from it. {SH} = thiol modification, used to bind gold nanoparticles
What was measured:
Staphylococcus aureus = experiment: microbe, parasite or virus in culture; format: cell-based
Experimental: (§1) An experiment was conducted to determine the minimum inhibitory concentration (MIC) for multi-resistant strains in an antimicrobial activity test. Pseudomonas aeruginosa, Acinetobacter baumannii, and Staphylococcus aureus were cultured in LB medium at 1×10^3 colony-forming units (CFU)/ml. Each strain was treated with WLBU2 peptide and antibiotics, such as ampicillin and erythromycin, at concentrations of 2, 4, 8, 16, 32, 64, 128, 256, and 512 μM, respectively, and then incubated at 37° C. for 18 to 24 hours.
(§2) The minimum inhibitory concentration (MIC) was determined as the […].

Acinetobacter baumannii = experiment: microbe, parasite or virus in culture; format: cell-based
Experimental: as §1, §2

Pseudomonas aeruginosa = experiment: microbe, parasite or virus in culture; format: cell-based
Experimental: as §1, §2

WLBU2 = experiment: SELEX aptamer selection, sequencing fold change of samples binding to WLBU2 vs control; conditions: samples binding to WLBU2 compared to the control group; SELEX repeated 11 times
Experimental: Aptamers specific to the antimicrobial peptide WLBU2 were developed using the SELEX (Systematic Evolution of Ligands by Exponential Enrichment) method. The SELEX process was repeated a total of 11 times, and the optimal aptamers with high binding affinity to WLBU2 were selected. The aptamer selection process was conducted according to the procedure illustrated in FIG. 1.
Among all the sequences confirmed through sequencing, four representative sequences showing a fold change greater than 2-fold in the samples binding to WLBU2 compared to the control group were developed.

[1] = Pseudomonas aeruginosa, LB medium, 1×10^3 CFU/ml, 37° C., 18 to 24 hours

CC[C@H]1OC(=O)[C@H](C)[C@@H](O[C@H]2C[C@@](C)(OC)[C@@H](O)[C@H](C)O2)[C@H](C)[C@@H](O[C@@H]2O[C@H](C)C[C@H](N(C)C)[C@H]2O)[C@](C)(O)C[C@@H](C)C(=O)[C@H](C)[C@@H](O)[C@]1(C)O [Erythromycin, erythromycin]
MIC (Staphylococcus aureus; Staphylococcus aureus, LB medium, 1×10^3 CFU/ml, 37° C., 18 to 24 hours, read-out: MIC): > 128 µM
MIC (Acinetobacter baumannii; Acinetobacter baumannii, LB medium, 1×10^3 CFU/ml, 37° C., 18 to 24 hours, read-out: MIC): > 256 µM
MIC (Pseudomonas aeruginosa; [1]): > 64 µM

CC1(C)S[C@@H]2[C@H](NC(=O)[C@H](N)c3ccccc3)C(=O)N2[C@H]1C(=O)O [Ampicillin, ampicillin]
MIC (Staphylococcus aureus; Staphylococcus aureus): > 256 µM
MIC (Acinetobacter baumannii; Acinetobacter baumannii): > 256 µM
MIC (Pseudomonas aeruginosa; [1]): > 64 µM

CC(C)[C@H](NC(=O)[C@H](Cc1c[nH]c2ccccc12)NC(=O)[C@H](CCCNC(=N)N)NC(=O)[C@H](CCCNC(=N)N)NC(=O)[C@@H](NC(=O)[C@@H](NC(=O)[C@H](CCCNC(=N)N)NC(=O)[C@@H](NC(=O)[C@@H](NC(=O)[C@H](CCCNC(=N)N)NC(=O)[C@H](CCCNC(=N)N)NC(=O)[C@@H](NC(=O)[C@H](Cc1c[nH]c2ccccc12)NC(=O)[C@H](CCCNC(=N)N)NC(=O)[C@H](CCCNC(=N)N)NC(=O)[C@@H](NC(=O)[C@H](CCCNC(=N)N)NC(=O)[C@H](CCCNC(=N)N)NC(=O)[C@@H](NC(=O)[C@H](Cc1c[nH]c2ccccc12)NC(=O)[C@H](CCCNC(=N)N)NC(=O)[C@@H](N)CCCNC(=N)N)C(C)C)C(C)C)C(C)C)C(C)C)C(C)C)C(C)C)C(C)C)C(=O)N[C@@H](CCCNC(=N)N)C(=O)N[C@@H](CCCNC(=N)N)C(=O)O [WLBU2] (H-RRWVRRVRRWVRRVVRVVRRWVRR-OH; N-terminus and C-terminus assumed)
MIC (Staphylococcus aureus; read-out: MIC): 4 µM (≈ 13.6 µg/mL)
MIC (Acinetobacter baumannii; read-out: MIC): 8 µM (≈ 27.2 µg/mL)
MIC (Pseudomonas aeruginosa): 4 µM (≈ 13.6 µg/mL)

B1: WLBU2-R-1: SELEX aptamer specific to WLBU2, SEQ No. 2 (nucleic acid)
DNA: AAAACGACGGCCAGTCTTTCGCGGGGTCTGGGGTTGGGGTTGTGGGTTAATTGCACTTCGAAATGCATGGTCATAGCTGT
modifications: listed as DNA, chemistry not fully specified
FoldChange (WLBU2): 3.28

B2: WLBU2-R: SELEX aptamer specific to WLBU2, SEQ No. 1 in Table 2; thiol-modified at 3′-terminal for binding to gold nanoparticles (nucleic acid)
DNA: AAAACGACGGCCAGTGCGCGCGCTTTGCTTGTGTGAGCATTGCTTTTGCATTATTGGTTTGGTTGGTGTGGTTCGTGCGCGCCATGGTCATAGCCTGT
modifications: DNA, 3' {SH}, backbone and methylation of C not given here
FoldChange (WLBU2): 2.2

B3: WLBU2-R-2: SELEX aptamer specific to WLBU2, SEQ No. 3 (nucleic acid)
DNA: AAAACGACGGCCAGTGGCTGGTAGGTTTGGGTGGTTTGGTTGGGATTCGGTTGGTTGGTACCAGCCATGGTCATAGCTGT
modifications: listed as DNA, chemistry not fully specified
FoldChange (WLBU2): 3.67

B4: WLBU2-R-3: SELEX aptamer specific to WLBU2, SEQ No. 4 (nucleic acid)
DNA: AAAACGACGGCCAGTGCGCGCGCTTTGCTTGTGTGAGCATTGCTTTTGCATTATTGGTTTGGTTGGTGTGGTTCGTGCGCGCCATGGTCATAGCTGT
modifications: listed as DNA, chemistry not fully specified
FoldChange (WLBU2): 2.7

Reference: patent US20260248950A1, “ANTIMICROBIAL PEPTIDE DELIVERY SYSTEM AND MANUFACTURING METHOD BASED ON GOLD NANOPARTICLE-APTAMER CONJUGATE” (NES BIOTECHNOLOGY CO., LTD., priority 2022, published 2026)
